# From ChEMBL document CHEMBL6083285 (J Med Chem, 2024)
# What was measured:
# [1] = Inhibition of NLRP3 inflammasome activation mediated pyroptosis in LPS-stimulated human THP-1 cells preincubated for 3 hrs followed by nigericin addition and measured after 1 hrs by resazurin dye based assay; assay type: cell-based
# [2] = Inhibition of NLRP3 inflammasome activation in LPS-stimulated human whole blood assessed as reduction in IL-1beta release preincubated for 3 hrs followed by nigericin addition and measured after 1 hrs by Alphalisa method; assay type: tissue-based
# [3] = Metabolic stability in rat hepatocytes assessed as intrinsic clearance measured per 10^6 cells at 100 uM incubated upto 60 mins by UPLC-MS/MS analysis; assay type: ADME, cell-based, Hepatocyte; conditions: read-out: CLH
# [4] = Lipophilicity, logD of compound at pH 7.4; assay type: physicochemical; conditions: buffer
# [5] = Metabolic stability in pooled rat liver microsomes assessed as intrinsic clearance at 1 uM measured upto 45 mins in presence of NADPH by UPLC-MS/MS analysis; assay type: ADME, Microsome; conditions: read-out: CLH
# [6] = Kinetic solubility of compound; assay type: physicochemical; conditions: read-out: Kinetic_solubility
# [7] = Clearance in male Sprague-Dawley rat at 1 mg/kg, iv measured after 24 hrs by LC-MS analysis; assay type: ADME, organism-based; conditions: in vivo
# [8] = AUC (0 to infinity) in male Sprague-Dawley rat at 1 mg/kg, iv measured after 24 hrs by LC-MS analysis; assay type: ADME, organism-based; conditions: in vivo
# [9] = system: BCRP; experiment: Efflux ratio of permeability in MDCK-II-BCRP cells at 5 uM incubated for 2 hrs by LC-MS/MS analysis; assay type: ADME, cell-based, Canis lupus familiaris; conditions: dog
# [10] = Metabolic stability in human hepatocytes assessed as intrinsic clearance measured per 10^6 cells at 100 uM incubated upto 60 mins by UPLC-MS/MS analysis; assay type: ADME, cell-based, Hepatocyte; conditions: read-out: CLH
# [11] = Protein binding in human plasma assessed as unbound fraction at 5 uM incubated for 4 hrs by UPLC-MS analysis; assay type: ADME, cell-free
# [12] = system: MDR1; experiment: Efflux ratio of permeability in MDCKII-MDR1 cells at 5 uM incubated for 2 hrs by LC-MS/MS analysis; assay type: ADME, cell-based, Canis lupus familiaris; conditions: dog, MDCK-MDR1
# [13] = system: MDR1; experiment: Permeability in MDCKII-MDR1 cells at 5 uM incubated for 2 hrs by LC-MS/MS analysis; assay type: ADME, cell-based, Canis lupus familiaris; conditions: dog, MDCK-MDR1, read-out: permeability
# [14] = Protein binding in rat plasma assessed as unbound fraction at 5 uM incubated for 4 hrs by UPLC-MS analysis; assay type: ADME, cell-free
# [15] = Protein binding in mouse plasma assessed as unbound fraction at 5 uM incubated for 4 hrs by UPLC-MS analysis; assay type: ADME, cell-free
# [16] = Volume of distribution at steady state in male Sprague-Dawley rat at 1 mg/kg, iv measured after 24 hrs by LC-MS analysis; assay type: ADME, organism-based; conditions: in vivo, read-out: Vdss
# [17] = system: MDR1; experiment: Permeability across apical to basolateral side in pig LLC-PK1 cells transfected with MDR1; assay type: ADME, cell-based, Sus scrofa; conditions: read-out: permeability
# [18] = Metabolic stability in pooled mouse liver microsomes assessed as intrinsic clearance at 1 uM measured upto 45 mins in presence of NADPH by UPLC-MS/MS analysis; assay type: ADME, Microsome; conditions: read-out: CLH
# [19] = Half-life in male Sprague-Dawley rat at 1 mg/kg, iv measured after 24 hrs by LC-MS analysis; assay type: ADME, organism-based; conditions: in vivo
# [20] = system: MDR1; experiment: Efflux ratio of permeability across apical to basolateral side in pig LLC-PK1 cells transfected with MDR1; assay type: ADME, cell-based, Sus scrofa
# [21] = Metabolic stability in mouse hepatocytes assessed as intrinsic clearance measured per 10^6 cells at 100 uM incubated upto 60 mins by UPLC-MS/MS analysis; assay type: ADME, cell-based, Hepatocyte; conditions: read-out: CLH
# [22] = system: BCRP; experiment: Permeability in MDCK-II-BCRP cells at 5 uM incubated for 2 hrs by LC-MS/MS analysis; assay type: ADME, cell-based, Canis lupus familiaris; conditions: dog, read-out: permeability
# [23] = Binding affinity to NanoLuc-tagged NLRP3 (unknown origin) expressed in HEK293 cells incubated for 2 hrs by NanoBRET assay; assay type: cell-based; conditions: Homo sapiens, HEK293, 2 h
# [24] = species on record: Homo sapiens; experiment: Selectivity ratio of IC50 for inhibition of NLRP3 inflammasome activation in LPS-stimulated human whole blood assessed as reduction in IL-1beta release to IC50 for inhibition of NLRP3 inflammasome activation mediated pyroptosis in LPS-stimulated human THP-1 cells
smiles,measurement,setting,value
CC(C)c1cccc2c1CC(=O)NS(=O)(=O)c1cnn(c1)C1(CC1)COc1cc-2ccn1,IC50,[1],567 nM
same,IC50,[2],421 nM
CC(C)c1cc(F)cc2c1CC(=O)NS(=O)(=O)c1cnn(c1)C(C)(C)COc1cc-2ccn1,hepatocyte CLint at 100 µM,[3],< 8 µL/min/1e6 cells
same,logD,[4],1.5
same,microsomal CLint at 1 µM,[5],< 15.4 µL/min/mg
same,solubility kinetic,[6],16.5 µg/mL
same,clearance,[7],3.5 mL/min/kg
same,AUC(0-inf),[8],4900 ng·h/mL
same,"efflux ratio at 2 h, 5 µM",[9],6
same,hepatocyte CLint at 100 µM,[10],< 8 µL/min/1e6 cells
same,"fraction unbound at 4 h, 5 µM",[11],0.047
same,IC50,[1],76 nM
same,"efflux ratio at 2 h, 5 µM",[12],18
same,"Papp at 2 h, 5 µM",[13],10.4 ×10⁻⁶ cm/s
same,"fraction unbound at 4 h, 5 µM",[14],0.036
same,"fraction unbound at 4 h, 5 µM",[15],0.086
same,Vd,[16],0.4 L/kg
same,Papp A→B,[17],0.39 ×10⁻⁶ cm/s
same,microsomal CLint at 1 µM,[18],35 µL/min/mg
same,half-life,[19],90 min
same,efflux ratio,[20],2.9
same,IC50,[2],351 nM
same,hepatocyte CLint at 100 µM,[21],21 µL/min/1e6 cells
same,"Papp at 2 h, 5 µM",[22],10.9 ×10⁻⁶ cm/s
CC(C)c1cccc2c1CC(=O)NS(=O)(=O)c1ccn(n1)C(C)(C)COc1cc-2ccn1,IC50,[1],1700 nM
COc1cc(-c2ccc3c(c2NC(=O)NS(=O)(=O)c2nn(C(C)C)cc2F)CCC3)ccn1,IC50,[1],8 nM
same,IC50,[2],230 nM
CC(C)(O)c1coc(S(=O)(=O)NC(=O)Nc2c3c(cc4c2CCC4)CCC3)c1,IC50,[23],990 nM
same,IC50,[1],64 nM
same,IC50,[2],770 nM
CC1(C)COc2cc(ccn2)-c2c(F)cc3c(c2NC(=O)NS(=O)(=O)c2nn1cc2F)CCC3,IC50,[1],8 nM
same,IC50,[2],125 nM
Cc1cc2c(c3c1-c1ccnc(c1)OCC(C)(C)n1cc(F)c(n1)S(=O)(=O)NC(=O)N3)CCC2,IC50,[1],4 nM
same,IC50,[2],102 nM
CC1(C)COc2cc(ccn2)-c2ccc3c(c2CC(=O)NS(=O)(=O)c2ccn1n2)CCC3,IC50,[1],16000 nM
CC(C)c1cc(F)cc2c1CC(=O)NS(=O)(=O)c1cnn(c1)C(C)(CO)COc1cc-2ccn1 (stereo unspecified),IC50,[1],83 nM
same,IC50,[2],486 nM
CC(C)n1ccc(S(=O)(=O)NC(=O)Nc2c(-c3ccnc(OC4CCOCC4)c3)ccc3c2CCC3)n1,logD,[4],0.35
same,Ratio IC50,[24],16
same,IC50,[1],62 nM
same,IC50,[2],1000 nM
